For 61 compounds, Kd results are on record in US12466813B2, “PRC1 inhibitors and methods of treatment therewith” (The Regents of the University of Michigan, priority 2018, dated 2025).

pKd: −log10 of the molar value.

In this assay the target is T1, RING1B-BMI1 (Homo sapiens, UniProt Q99496).
T1 sequence (Q99496 1-336): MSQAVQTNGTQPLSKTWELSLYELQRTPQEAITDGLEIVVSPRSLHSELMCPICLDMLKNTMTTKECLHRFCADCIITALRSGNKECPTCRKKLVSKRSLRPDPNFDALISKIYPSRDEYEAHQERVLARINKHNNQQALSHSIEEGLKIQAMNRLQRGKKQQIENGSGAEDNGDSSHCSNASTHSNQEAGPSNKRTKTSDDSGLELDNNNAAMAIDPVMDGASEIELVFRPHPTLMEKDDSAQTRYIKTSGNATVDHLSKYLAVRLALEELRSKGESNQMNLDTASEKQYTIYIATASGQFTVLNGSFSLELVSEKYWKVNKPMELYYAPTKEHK
T1 sequence (P35226 1-326 partner): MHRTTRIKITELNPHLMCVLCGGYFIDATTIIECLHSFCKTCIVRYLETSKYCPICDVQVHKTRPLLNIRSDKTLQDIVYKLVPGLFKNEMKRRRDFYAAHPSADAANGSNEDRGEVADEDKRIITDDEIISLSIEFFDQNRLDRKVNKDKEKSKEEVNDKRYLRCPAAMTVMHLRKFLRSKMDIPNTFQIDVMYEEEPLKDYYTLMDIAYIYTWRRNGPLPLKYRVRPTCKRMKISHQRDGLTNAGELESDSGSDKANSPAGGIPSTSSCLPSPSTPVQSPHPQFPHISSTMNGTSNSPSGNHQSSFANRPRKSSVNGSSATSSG
Put plainly: KD classes of Table A (direct binding to Ring1B-Bmi1). Conditions: class given in Table A. The procedure: Experiments were conducted during development of embodiments herein to develop small molecule inhibitors of PRC1 by targeting the Ring1B-BMI1 E3 ligase. These compounds bind directly to Ring1B-Bmi1 with low-micromolar affinity and inhibit PRC1 in vitro and in cells. […] Experiments were conducted during development of embodiments herein to test COMPOUND 1 in leukemia stem cell models represented by TEX cells (Ref. 22; herein incorporated by reference in its entirety) and M9-ENL1 cells (Ref. 23; herein incorporated by reference in its entirety). […] In some embodiments, COMPOUND 1 and COMPOUND 1 analogs are find use as agents in targeting leukemia and other cancer stem cells.
The compounds listed in Table A have been synthesized and/or tested for activity in inhibiting activity of PRC1 complex, and are within the scope herein.

As a reminder, the pKd is the Kd on a negative log10 scale, so that one unit is a factor of ten. Low values mean a large Kd, high ones a small Kd. The compound `CCc1c(-c2cccc3c2ccn3C)[nH]c(C(=O)O)c1-c1ccc(OC)cc1` [compound 108] gave a negative-log Kd (pKd) of less than 4.00.
`CCc1c(-c2cccc3c2ccn3C)[nH]c(C(=O)O)c1-c1ccc(F)c(C)c1` [compound 109] showed a negative-log Kd (pKd) of less than 4.00.
`Cn1ccc2c(-c3[nH]c(C(=O)O)c4c3CCCC4)cccc21` [compound 110] showed a negative logarithm of the Kd (pKd) of less than 4.00.
Consider `CCc1c(C(=O)O)[nH]c(-c2cccc3c2ccn3C)c1CC` [compound 111], for which the pKd is less than 4.00.
In the case of `CCc1c(C(=O)O)[nH]c(-c2cccc3[nH]ccc23)c1CC` [compound 112], the negative logarithm of the Kd (pKd) is less than 4.00.
As to `CCc1c(C(=O)O)[nH]c(-c2cccc3[nH]ccc23)c1-c1ccccc1` [compound 113], the pKd is less than 4.00.
As to `CCc1c(-c2cccc3[nH]ccc23)[nH]c(C(=O)O)c1-c1ccc([N+](=O)[O-])cc1` [compound 114], the negative logarithm of the Kd (pKd) is less than 4.00.
As to `O=C(O)c1[nH]c(-c2cccc3[nH]ccc23)c2c1CCCC2` [compound 115], the pKd was less than 4.00.
Turning to `Cc1cc(C(=O)O)[nH]c1-c1cccc2c1ccn2C` [compound 116], the pKd is less than 4.00.
With `Cc1cc(-c2cccc3c2ccn3C)[nH]c1C(=O)O` [compound 117], the pKd is less than 4.00.
With `O=C(O)c1cc(-c2ccccc2)c(-c2cccc3[nH]ccc23)[nH]1` [compound 118], the pKd is less than 4.00.
On to `O=C(O)c1ccc(-c2cccc3c2ccn3C2CC2)[nH]1` [compound 119], for which the negative-log Kd (pKd) is less than 4.00.
`Cc1cc(-c2cccc3[nH]ccc23)[nH]c1C(=O)O` [compound 120]: the pKd was less than 4.00.
Next, `Cc1cc(C(=O)O)[nH]c1-c1cccc2[nH]ccc12` [compound 121]: less than 4.00.
Regarding `CCn1ccc2c(-c3ccc(C(=O)O)[nH]3)cccc21` [compound 122], the pKd was less than 4.00.
For the compound `Cn1c(C(=O)O)ccc1-c1cccc2[nH]ccc12` [compound 123], the pKd was less than 4.00.
The compound `CC(C)CCn1ccc2c(-c3ccc(C(=O)O)[nH]3)cccc21` [compound 124] showed a negative logarithm of the Kd (pKd) of less than 4.00.
`Nc1cccc(-c2ccc(C(=O)O)[nH]2)c1` [compound 125] had a pKd of less than 4.00.
In turn, `O=C(O)c1ccc(-c2cccc3[nH]ncc23)[nH]1` [compound 126] gave a negative-log Kd (pKd) of less than 4.00.
Turning to `Cn1ccc2c(-c3ccc(C(=O)O)[nH]3)cccc21` [compound 127], the negative-log Kd (pKd) is less than 4.00.
With `Cc1cccc(-c2ccc(C(=O)O)[nH]2)c1` [compound 128], the pKd was less than 4.00.
`CCc1cccc(-c2ccc(C(=O)O)[nH]2)c1` [compound 129] had a pKd of less than 4.00.
Compound `O=C(O)c1ccc(-c2ccccc2O)[nH]1` [compound 130] had a pKd of less than 4.00.
Compound `O=C(O)c1ccc(-c2cccc(OCC3CC3)c2)[nH]1` [compound 131] gave a pKd of less than 4.00.
For the compound `CC(C)CCOc1cccc(-c2ccc(C(=O)O)[nH]2)c1` [compound 132], the pKd was less than 4.00.
As for `COc1cc(OC)cc(-c2ccc(C(=O)O)[nH]2)c1` [compound 133], the pKd is less than 4.00.
Next, `O=C(O)c1ccc(-c2cccc3[nH]ccc23)[nH]1` [compound 134]: less than 4.00.
`O=C(O)c1ccc(-c2cccc(OCc3ccccc3)c2)[nH]1` [compound 135] had a negative-log Kd (pKd) of less than 4.00.
Next, `O=C(O)c1ccc(-c2ccccc2Oc2ccccc2)[nH]1` [compound 136]: less than 4.00; `COc1ccc(C)cc1-c1ccc(C(=O)O)[nH]1` [compound 137]: less than 4.00.
`O=C(O)c1ccc(-c2ccccc2OCc2ccccc2)[nH]1` [compound 138] showed a negative-log Kd (pKd) of less than 4.00.
As for `O=C(O)c1ccc(-c2cccc(Oc3ccccc3)c2)[nH]1` [compound 139], the negative-log Kd (pKd) is less than 4.00.
Consider `CCOc1ccccc1-c1ccc(C(=O)O)[nH]1` [compound 140], for which the pKd was less than 4.00.
Turning to `COc1cccc(-c2ccc(C(=O)O)[nH]2)c1` [compound 141], the pKd is less than 4.00.
Next, `COc1ccccc1-c1ccc(C(=O)O)[nH]1` [compound 142]: less than 4.00; `O=C(O)c1ccc(-c2ccc(Cl)cc2)[nH]1` [compound 143]: less than 4.00.
Compound `O=C(O)c1ccc(-c2ccccc2)[nH]1` [compound 144] gave a negative-log Kd (pKd) of less than 4.00.
`NC(=O)c1ccc(-c2cccc3[nH]ccc23)[nH]1` [compound 145] showed a negative-log Kd (pKd) of less than 4.00.
Next, `O=C(O)c1ccc(-c2cccc3c2ccn3CCO)[nH]1` [compound 146]: less than 4.00; `Nc1ccccc1-c1ccc(C(=O)O)[nH]1` [compound 147]: less than 4.00.
Next, `CCOc1cccc(-c2ccc(C(=O)O)[nH]2)c1` [compound 148]: less than 4.00; `O=C(O)c1ccc(-c2ccc(C(F)(F)F)cc2)[nH]1` [compound 150]: less than 4.00; `Cc1ccc(-c2ccc(C(=O)O)[nH]2)cc1` [compound 151]: less than 4.00.
In turn, `O=C(O)c1ccc(-c2ccccc2)s1` [compound 152] gave a negative logarithm of the Kd (pKd) of less than 4.00.
In the case of `NCCn1ccc2c(-c3ccc(C(=O)O)[nH]3)cccc21` [compound 153], the pKd is less than 4.00.
Compound `Cc1ccccc1-c1ccc(C(=O)O)[nH]1` [compound 154] had a pKd of less than 4.00.
Next, `COc1ccc(OC)c(-c2ccc(C(=O)O)[nH]2)c1` [compound 155]: less than 4.00.
Turning to `O=C(O)c1ccc(-c2cccc(O)c2)[nH]1` [compound 156], the pKd is less than 4.00.
`COc1ccc(-c2ccc(C(=O)O)[nH]2)cc1` [compound 157] showed a negative-log Kd (pKd) of less than 4.00.
Next, `COC(=O)c1ccc(-c2ccccc2)[nH]1` [compound 158]: less than 4.00; `O=C(O)c1ccc(-c2ccc(-c3ccccc3)cc2)s1` [compound 159]: less than 4.00.
In turn, `O=C(O)c1ccc(-c2cccc3ncccc23)[nH]1` [compound 160] gave a negative-log Kd (pKd) of less than 4.00.
`CCCCc1c(-c2cccc3[nH]ccc23)[nH]c(C(=O)O)c1-c1ccccc1Cl` [compound 162]: the pKd is less than 4.00.
For the compound `CCOC(=O)c1[nH]c(-c2cccc3[nH]ncc23)c(CC)c1-c1ccc(OC)cc1Cl` [compound 163], the pKd is less than 4.00.
`CCOC(=O)c1[nH]c(-c2c(OC)cccc2OC)c(CC)c1-c1ccc(OC)cc1Cl` [compound 164] gave a pKd of less than 4.00.
Compound `CCC(C)c1c(-c2cc(F)cc3[nH]ccc23)[nH]c(C(=O)O)c1-c1cc(OC)cc2[nH]ccc12` (stereo not shown) [compound 171] showed a pKd greater than 4.70.
`CC(C)c1c(-c2cc(F)cc3[nH]ccc23)[nH]c(C(=O)O)c1-c1cccc2scnc12` [compound 172]: the negative-log Kd (pKd) is greater than 4.70.
Regarding `COc1cc(-c2c(C(=O)O)[nH]c(-c3cc(F)cc4[nH]ccc34)c2C2CCCC2)c2cc[nH]c2c1` [compound 173], the pKd is greater than 4.70.
Next, `COc1cc(-c2c(C(=O)O)[nH]c(-c3cc(F)cc4[nH]ccc34)c2CC(C)C)c2cc[nH]c2c1` [compound 174]: greater than 4.70.
In the case of `COc1cc(-c2c(C(=O)O)[nH]c(-c3cc(F)cc4[nH]ccc34)c2C(C)C)c2ccn(CC(N)=O)c2c1` [compound 175], the pKd was greater than 4.70.
For the compound `COCCC(=O)NCCn1ccc2c(-c3c(C(=O)O)[nH]c(-c4cc(F)cc5[nH]ccc45)c3C(C)C)cc(OC)cc21` [compound 176], the negative-log Kd (pKd) was greater than 4.70.
